Data published in ChEMBL document CHEMBL5465560, “Selectivity Literature for EUbOPEN Chemogenomic Library” (2024).

Key:
[1] = target: Fibroblast growth factor receptor 1 (Homo sapiens, UniProt P11362); assay: Selectivity interaction (KinomeScan (DiscoverX)) EUB0000229b FGFR1; conditions: at 10 µM
[2] = target: T1, Aurora kinase A (Homo sapiens) (UniProt O14965); assay: Selectivity interaction (KinomeScan (DiscoverX)) EUB0001079a STK6; conditions: at 1 µM
T1 sequence (whole entry): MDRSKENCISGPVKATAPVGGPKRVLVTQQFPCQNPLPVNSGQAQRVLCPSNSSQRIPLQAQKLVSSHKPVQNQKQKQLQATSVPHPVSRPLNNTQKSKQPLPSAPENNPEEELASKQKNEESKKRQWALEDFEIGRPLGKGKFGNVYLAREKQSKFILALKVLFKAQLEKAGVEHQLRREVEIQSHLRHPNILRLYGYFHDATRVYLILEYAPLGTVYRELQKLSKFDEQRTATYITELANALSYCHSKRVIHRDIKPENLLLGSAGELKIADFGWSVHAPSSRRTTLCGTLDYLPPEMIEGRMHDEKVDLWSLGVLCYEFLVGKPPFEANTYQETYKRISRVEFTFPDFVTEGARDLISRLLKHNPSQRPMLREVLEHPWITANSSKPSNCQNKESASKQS

[3] = target: T2, Mitogen-activated protein kinase kinase kinase 13 (Homo sapiens) (UniProt O43283); assay: Selectivity interaction (KinomeScan (DiscoverX)) EUB0001079a MAP3K13; conditions: at 1 µM
T2 sequence (whole entry): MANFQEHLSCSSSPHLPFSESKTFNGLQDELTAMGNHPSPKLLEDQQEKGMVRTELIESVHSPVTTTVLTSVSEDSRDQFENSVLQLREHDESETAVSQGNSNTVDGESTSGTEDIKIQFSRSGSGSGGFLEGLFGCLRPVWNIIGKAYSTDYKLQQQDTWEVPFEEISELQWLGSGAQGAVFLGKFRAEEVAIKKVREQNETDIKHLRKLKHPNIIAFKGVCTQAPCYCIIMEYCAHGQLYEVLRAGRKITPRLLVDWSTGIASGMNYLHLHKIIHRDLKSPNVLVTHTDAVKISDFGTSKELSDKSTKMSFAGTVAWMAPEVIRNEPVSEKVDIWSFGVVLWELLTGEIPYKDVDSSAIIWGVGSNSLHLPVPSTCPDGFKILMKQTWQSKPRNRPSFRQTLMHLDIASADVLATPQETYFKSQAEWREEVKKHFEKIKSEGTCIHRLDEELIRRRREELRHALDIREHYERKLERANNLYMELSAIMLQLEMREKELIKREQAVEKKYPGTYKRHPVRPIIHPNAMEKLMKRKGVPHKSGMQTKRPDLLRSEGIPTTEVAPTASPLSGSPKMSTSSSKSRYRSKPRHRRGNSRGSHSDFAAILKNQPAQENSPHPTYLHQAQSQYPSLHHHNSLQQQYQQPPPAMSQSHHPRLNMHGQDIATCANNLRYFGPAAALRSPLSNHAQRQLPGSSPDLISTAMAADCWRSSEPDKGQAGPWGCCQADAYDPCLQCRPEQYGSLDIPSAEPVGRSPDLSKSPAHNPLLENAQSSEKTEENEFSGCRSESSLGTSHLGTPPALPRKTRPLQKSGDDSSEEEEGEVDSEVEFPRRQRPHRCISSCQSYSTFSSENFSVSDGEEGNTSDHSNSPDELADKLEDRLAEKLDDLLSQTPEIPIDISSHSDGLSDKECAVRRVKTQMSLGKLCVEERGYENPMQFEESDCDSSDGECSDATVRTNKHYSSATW

[4] = target: 5-hydroxytryptamine receptor 2B (Homo sapiens, UniProt P41595); assay: Selectivity interaction (Panel of non-epigenetic targets (kinases, GPCRs, ion channels, and transporters, Eurofins) ) EUB0000271b HTR2B; conditions: at 1 µM
[5] = target: Serine/threonine-protein kinase B-raf (Homo sapiens) (UniProt P15056); assay: Selectivity interaction (Kinase panel (Eurofins)) EUB0001564a BRAF; conditions: at 1 µM
[6] = target: 5'-AMP-activated protein kinase catalytic subunit alpha-1 (Homo sapiens, UniProt Q13131); assay: Selectivity interaction (ActivX KiNativ screen (ex vivo kinase selectivity in human PBMCs)) EUB0001619a PRKAA1; format: cell-based; conditions: PBMC, at 1 µM
[7] = target: cAMP-dependent protein kinase catalytic subunit beta (Homo sapiens) (UniProt P22694); assay: Selectivity interaction (KinomeScan (DiscoverX)) EUB0000607a PRKACB; conditions: at 10 µM
[8] = target: Mitogen-activated protein kinase kinase kinase kinase 1 (Homo sapiens) (UniProt Q92918); assay: Selectivity interaction (ActivX KiNativ screen (kinase selectivity in THP-1 cell lysates)) EUB0000639a MAP4K1; format: subcellular; conditions: lysate, at 5 µM
[9] = target: Death-associated protein kinase 1 (Homo sapiens, UniProt P53355); conditions: at 10 µM
[10] = target: STE20-like serine/threonine-protein kinase (Homo sapiens, UniProt Q9H2G2); conditions: at 10 µM
[11] = target: T3, Serine/threonine-protein kinase RIO1 (Homo sapiens) (UniProt Q9BRS2); assay: Selectivity interaction (KinomeScan (DiscoverX)) EUB0000092b RIOK1; conditions: at 10 µM
T3 sequence (whole entry): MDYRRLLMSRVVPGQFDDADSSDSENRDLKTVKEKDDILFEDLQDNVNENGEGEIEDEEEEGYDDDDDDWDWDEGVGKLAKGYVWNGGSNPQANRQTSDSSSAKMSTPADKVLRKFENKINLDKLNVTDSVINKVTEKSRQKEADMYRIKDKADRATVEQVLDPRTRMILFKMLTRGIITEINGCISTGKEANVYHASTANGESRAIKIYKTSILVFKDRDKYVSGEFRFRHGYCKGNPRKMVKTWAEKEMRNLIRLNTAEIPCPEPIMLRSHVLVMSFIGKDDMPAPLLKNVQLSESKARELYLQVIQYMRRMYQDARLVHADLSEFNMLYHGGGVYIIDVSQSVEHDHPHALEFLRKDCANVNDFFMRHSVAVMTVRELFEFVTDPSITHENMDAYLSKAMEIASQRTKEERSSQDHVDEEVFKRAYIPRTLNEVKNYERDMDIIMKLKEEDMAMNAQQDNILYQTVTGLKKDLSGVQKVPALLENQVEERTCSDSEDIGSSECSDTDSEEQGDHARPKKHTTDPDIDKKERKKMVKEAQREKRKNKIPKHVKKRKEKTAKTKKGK

[12] = target: Ribosomal protein S6 kinase alpha-5 (Homo sapiens) (UniProt O75582); assay: Selectivity interaction (KinomeScan (DiscoverX)) EUB0000092b RPS6KA5; conditions: at 10 µM
[13] = target: Ribosomal protein S6 kinase alpha-3 (Homo sapiens, UniProt P51812); assay: Selectivity interaction (Ambit KINOMEscan and KiNATiv profiling in Jurkat cells) EUB0000090b RPS6KA3; format: cell-based; conditions: at 1 µM

Sequence of Death-associated protein kinase 1 (P53355 whole entry, looked up): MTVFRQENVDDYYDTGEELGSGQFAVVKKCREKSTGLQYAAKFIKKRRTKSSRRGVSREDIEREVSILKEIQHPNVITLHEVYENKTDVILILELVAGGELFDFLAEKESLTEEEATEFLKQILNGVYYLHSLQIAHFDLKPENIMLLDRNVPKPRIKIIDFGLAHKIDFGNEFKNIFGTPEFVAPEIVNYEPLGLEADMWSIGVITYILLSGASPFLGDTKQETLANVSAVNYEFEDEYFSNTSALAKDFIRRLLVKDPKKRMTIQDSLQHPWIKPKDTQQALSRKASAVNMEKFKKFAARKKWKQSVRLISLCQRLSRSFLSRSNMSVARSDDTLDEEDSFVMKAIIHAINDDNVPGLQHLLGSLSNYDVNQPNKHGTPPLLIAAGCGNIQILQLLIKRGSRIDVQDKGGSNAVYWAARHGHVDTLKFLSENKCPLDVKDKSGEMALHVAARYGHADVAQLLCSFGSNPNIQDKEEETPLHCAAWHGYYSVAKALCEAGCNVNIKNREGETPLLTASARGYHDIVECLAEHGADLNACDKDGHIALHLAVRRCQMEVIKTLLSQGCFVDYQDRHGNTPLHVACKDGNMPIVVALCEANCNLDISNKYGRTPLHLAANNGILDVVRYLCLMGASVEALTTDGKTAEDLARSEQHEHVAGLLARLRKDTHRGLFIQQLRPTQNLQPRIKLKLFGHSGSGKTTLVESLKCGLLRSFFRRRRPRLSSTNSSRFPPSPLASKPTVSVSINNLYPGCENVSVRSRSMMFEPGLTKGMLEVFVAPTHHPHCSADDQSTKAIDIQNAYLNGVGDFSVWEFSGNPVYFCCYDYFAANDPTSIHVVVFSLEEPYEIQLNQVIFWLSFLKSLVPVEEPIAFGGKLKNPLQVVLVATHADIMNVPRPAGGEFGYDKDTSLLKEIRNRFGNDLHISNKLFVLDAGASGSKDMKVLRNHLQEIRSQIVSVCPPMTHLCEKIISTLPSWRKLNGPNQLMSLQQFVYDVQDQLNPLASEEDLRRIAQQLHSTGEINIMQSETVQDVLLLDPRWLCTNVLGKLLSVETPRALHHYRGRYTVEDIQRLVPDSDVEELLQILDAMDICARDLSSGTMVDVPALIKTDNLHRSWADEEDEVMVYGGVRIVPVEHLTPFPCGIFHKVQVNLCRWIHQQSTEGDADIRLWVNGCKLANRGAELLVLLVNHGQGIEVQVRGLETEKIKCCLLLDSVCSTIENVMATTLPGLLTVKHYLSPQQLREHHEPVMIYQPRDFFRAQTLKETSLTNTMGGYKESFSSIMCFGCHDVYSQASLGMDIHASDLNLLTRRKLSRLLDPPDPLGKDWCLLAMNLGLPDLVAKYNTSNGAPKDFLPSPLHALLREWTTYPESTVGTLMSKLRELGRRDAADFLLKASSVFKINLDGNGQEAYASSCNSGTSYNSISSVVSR
Sequence of Ribosomal protein S6 kinase alpha-5 (Homo sapiens) (O75582 whole entry, looked up): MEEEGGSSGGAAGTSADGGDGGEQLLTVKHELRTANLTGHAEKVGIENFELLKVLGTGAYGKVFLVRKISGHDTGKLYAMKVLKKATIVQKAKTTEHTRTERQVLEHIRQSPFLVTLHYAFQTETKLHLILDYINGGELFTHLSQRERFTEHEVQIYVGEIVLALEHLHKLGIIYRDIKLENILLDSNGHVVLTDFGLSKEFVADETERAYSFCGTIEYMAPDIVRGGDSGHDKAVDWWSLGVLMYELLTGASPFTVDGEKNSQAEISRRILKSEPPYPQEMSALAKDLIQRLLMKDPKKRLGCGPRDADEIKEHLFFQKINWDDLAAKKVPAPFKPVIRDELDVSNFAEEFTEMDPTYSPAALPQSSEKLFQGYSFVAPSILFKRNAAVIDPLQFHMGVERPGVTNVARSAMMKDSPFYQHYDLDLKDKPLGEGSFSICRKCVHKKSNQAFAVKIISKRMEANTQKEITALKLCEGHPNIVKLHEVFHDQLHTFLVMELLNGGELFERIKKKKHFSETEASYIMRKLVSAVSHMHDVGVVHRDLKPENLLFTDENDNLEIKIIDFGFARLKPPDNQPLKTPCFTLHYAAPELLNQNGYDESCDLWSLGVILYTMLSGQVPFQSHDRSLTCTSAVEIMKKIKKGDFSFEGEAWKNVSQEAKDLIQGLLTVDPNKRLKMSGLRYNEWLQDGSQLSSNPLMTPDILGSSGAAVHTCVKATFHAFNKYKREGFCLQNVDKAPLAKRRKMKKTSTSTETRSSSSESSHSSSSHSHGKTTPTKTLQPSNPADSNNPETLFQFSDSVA
Sequence of STE20-like serine/threonine-protein kinase (Q9H2G2 whole entry, looked up): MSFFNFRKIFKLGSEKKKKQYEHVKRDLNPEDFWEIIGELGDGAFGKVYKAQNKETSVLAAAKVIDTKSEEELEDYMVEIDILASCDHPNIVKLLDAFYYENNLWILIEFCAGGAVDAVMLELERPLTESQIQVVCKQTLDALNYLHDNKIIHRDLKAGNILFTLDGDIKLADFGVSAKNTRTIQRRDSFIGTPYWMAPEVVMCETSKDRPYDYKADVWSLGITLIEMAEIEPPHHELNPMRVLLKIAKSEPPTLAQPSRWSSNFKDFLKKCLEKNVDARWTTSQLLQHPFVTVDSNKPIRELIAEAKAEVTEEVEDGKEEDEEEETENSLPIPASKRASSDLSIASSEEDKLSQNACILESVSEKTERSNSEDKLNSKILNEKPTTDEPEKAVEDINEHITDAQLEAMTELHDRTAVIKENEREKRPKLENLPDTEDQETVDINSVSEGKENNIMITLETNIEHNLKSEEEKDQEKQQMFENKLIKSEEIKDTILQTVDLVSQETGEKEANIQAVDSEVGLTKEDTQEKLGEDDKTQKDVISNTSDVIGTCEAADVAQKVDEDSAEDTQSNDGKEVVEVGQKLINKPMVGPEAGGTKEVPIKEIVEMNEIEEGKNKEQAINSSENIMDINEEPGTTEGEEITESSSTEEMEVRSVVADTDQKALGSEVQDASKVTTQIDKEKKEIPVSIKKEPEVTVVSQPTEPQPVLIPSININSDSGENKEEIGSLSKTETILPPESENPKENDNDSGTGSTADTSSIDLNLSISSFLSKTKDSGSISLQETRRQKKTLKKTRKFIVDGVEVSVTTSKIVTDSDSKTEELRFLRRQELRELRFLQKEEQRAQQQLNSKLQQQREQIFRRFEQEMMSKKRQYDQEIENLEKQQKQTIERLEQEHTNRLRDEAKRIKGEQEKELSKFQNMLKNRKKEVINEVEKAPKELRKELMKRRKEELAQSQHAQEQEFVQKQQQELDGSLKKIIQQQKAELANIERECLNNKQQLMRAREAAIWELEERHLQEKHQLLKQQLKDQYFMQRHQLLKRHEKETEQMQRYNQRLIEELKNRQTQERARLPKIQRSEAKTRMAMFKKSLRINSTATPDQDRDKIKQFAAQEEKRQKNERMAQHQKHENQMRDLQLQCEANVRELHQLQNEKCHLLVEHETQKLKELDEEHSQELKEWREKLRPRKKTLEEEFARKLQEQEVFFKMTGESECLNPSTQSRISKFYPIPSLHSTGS
Sequence of 5'-AMP-activated protein kinase catalytic subunit alpha-1 (Q13131 whole entry, looked up): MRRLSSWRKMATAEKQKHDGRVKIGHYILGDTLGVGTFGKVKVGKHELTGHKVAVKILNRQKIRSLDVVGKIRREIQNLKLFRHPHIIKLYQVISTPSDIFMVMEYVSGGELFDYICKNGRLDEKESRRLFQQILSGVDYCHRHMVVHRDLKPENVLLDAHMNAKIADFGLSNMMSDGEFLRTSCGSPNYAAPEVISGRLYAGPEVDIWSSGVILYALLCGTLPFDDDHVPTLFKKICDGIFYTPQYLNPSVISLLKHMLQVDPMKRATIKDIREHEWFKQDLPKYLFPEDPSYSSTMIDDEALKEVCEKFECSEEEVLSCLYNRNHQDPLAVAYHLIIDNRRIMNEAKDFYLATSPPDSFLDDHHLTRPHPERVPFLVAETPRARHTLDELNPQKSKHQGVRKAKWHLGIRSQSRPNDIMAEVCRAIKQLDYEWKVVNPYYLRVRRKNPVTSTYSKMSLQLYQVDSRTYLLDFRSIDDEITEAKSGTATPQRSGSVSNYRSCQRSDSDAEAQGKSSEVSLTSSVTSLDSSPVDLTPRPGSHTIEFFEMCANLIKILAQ
Sequence of 5-hydroxytryptamine receptor 2B (P41595 whole entry): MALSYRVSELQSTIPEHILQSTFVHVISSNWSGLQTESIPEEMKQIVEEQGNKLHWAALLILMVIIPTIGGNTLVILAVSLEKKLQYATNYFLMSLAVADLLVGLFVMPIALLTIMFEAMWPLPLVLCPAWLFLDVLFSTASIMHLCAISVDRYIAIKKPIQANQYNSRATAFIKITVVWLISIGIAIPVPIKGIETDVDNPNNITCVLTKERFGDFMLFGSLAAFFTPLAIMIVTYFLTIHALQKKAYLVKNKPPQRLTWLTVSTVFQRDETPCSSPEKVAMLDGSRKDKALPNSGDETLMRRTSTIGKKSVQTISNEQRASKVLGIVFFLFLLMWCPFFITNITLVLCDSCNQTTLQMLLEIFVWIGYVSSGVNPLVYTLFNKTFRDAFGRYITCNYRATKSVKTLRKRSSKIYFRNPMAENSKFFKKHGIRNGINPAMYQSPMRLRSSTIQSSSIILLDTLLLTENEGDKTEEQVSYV

COc1cc(N(C)c2ccnc3ccc(C(F)(F)F)cc23)cc(OC)c1OC
% binding [1]: 99%

Nc1cnc(N2CCc3cc(S(=O)(=O)Nc4c(F)cc(Cl)cc4F)cc(N4CCCC4=O)c32)nc1 [TP-020n]
% of control [2]: 100% | % of control [3]: 100%

Cc1cc(C)cc([C@@H]2c3cc(C)ccc3NC(=O)CN2C(=O)c2ccc(Br)s2)c1
% of inhibition [4]: 1%

CC[C@@H](Nc1c(C#N)c(-c2ccc(-c3cccc(C)c3F)cc2)nc2cnccc12)C(=O)O [BAY-091]
% of inhibition [5]: 23.5%

N#Cc1cccc(-c2c[nH]c3ncnc(N4CCOCC4)c23)c1
% of inhibition [6]: 16%

CNC(=O)Nc1ccc(-c2nc(N3CC4CCC(C3)O4)c3cnn(C4CCC5(CC4)OCCO5)c3n2)cc1
% of control [7]: 87%

CC[C@@H]1[C@H](F)C(=O)N[C@@H]1COc1nccc2cc(C(N)=O)c(OC)cc12 [ZIMLOVISERTIB]
% of inhibition [8]: -4.3%

CCN(CC)CCCCNc1ncc2cc(-c3cc(OC)cc(OC)c3)c(NC(=O)NC(C)(C)C)nc2n1
% of control [9]: 100% | % of control [10]: 100%

CCC(=O)N1CCN(c2ccc(-n3c(=O)ccc4cnc5ccc(-c6cnc7ccccc7c6)cc5c43)cc2C(F)(F)F)CC1
% of control [11]: 81% | % of control [12]: 100%

CN(C)C/C=C/C(=O)Nc1ccc(C(=O)N2CCCC(Nc3ncc(Cl)c(-c4c[nH]c5ccccc45)n3)C2)cc1 (stereo not drawn)
% of control [13]: 100%
